From ChEMBL document CHEMBL1201862, “PubChem BioAssay data set” (2004)
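Interpolation was linear, between the two tested concentrations surrounding the appropriate level; five concentrations were tested over 48 hours in 96-well plates. GI50 = concentration required for 50% inhibition of growth.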 Active and inactive are the calls of the source. Cut-off read from the data, not from the text of the source: active = GI50 up to about 1.1 µM and inactive = higher.

How the values were obtained:
Experiment in all cases: NCI-60 cell line screen, 48 h
CCRF-CEM = test system: CCRF-CEM
K562 = test system: K562
RXF 393 = test system: RXF 393
OVCAR-8 = test system: OVCAR-8
SK-MEL-5 = test system: SK-MEL-5
SF-295 = test system: SF-295
U-251 = test system: U-251
786-0 = test system: 786-0
SR = test system: SR
A549 = test system: A549
SK-MEL-28 = test system: SK-MEL-28
TK-10 = test system: TK-10
NCI-H522 = test system: NCI-H522
SN12C = test system: SN12C
PC-3 = test system: PC-3
MDA-MB-435 = test system: MDA-MB-435
M14 = test system: M14
DU-145 = test system: DU-145
OVCAR-3 = test system: OVCAR-3
HOP-62 = test system: HOP-62
SF-539 = test system: SF-539
MCF7 = test system: MCF7
OVCAR-5 = test system: OVCAR-5
SNB-19 = test system: SNB-19
UACC-62 = test system: UACC-62
SF-268 = test system: SF-268
SK-MEL-2 = test system: SK-MEL-2
HT-29 = test system: HT-29
IGROV-1 = test system: IGROV-1
HCT-116 = test system: HCT-116
A498 = test system: A498
MDA-MB-231 = test system: MDA-MB-231
SW-620 = test system: SW-620
LOX IMVI = test system: LOX IMVI
EKVX = test system: EKVX
NCI-H23 = test system: NCI-H23
HOP-92 = test system: HOP-92
MDA-N = test system: MDA-N
UO-31 = test system: UO-31
CAKI-1 = test system: CAKI-1
T47D = test system: T47D
COLO 205 = test system: COLO 205
NCI/ADR-RES = test system: NCI/ADR-RES
SNB-75 = test system: SNB-75
OVCAR-4 = test system: OVCAR-4
KM12 = test system: KM12
Hs-578T = test system: Hs-578T
RPMI-8226 = test system: RPMI-8226
MOLT-4 = test system: MOLT-4
NCI-H460 = test system: NCI-H460
ACHN = test system: ACHN
SK-OV-3 = test system: SK-OV-3
BT-549 = test system: BT-549
HCT-15 = test system: HCT-15
Malme-3M = test system: Malme-3M

Measured: GI50

O=C(O)CSC1=NCCN1
> 100 µM: HCT-15
inactive: CCRF-CEM > 100 µM | K562 > 100 µM | RXF 393 > 100 µM | OVCAR-8 > 100 µM | SK-MEL-5 > 100 µM | SF-295 > 100 µM | U-251 > 100 µM | 786-0 > 100 µM | SR > 100 µM | A549 > 100 µM | SK-MEL-28 > 100 µM | TK-10 > 100 µM | NCI-H522 > 100 µM | SN12C > 100 µM | PC-3 > 100 µM | MDA-MB-435 > 100 µM | M14 > 100 µM | DU-145 > 100 µM | OVCAR-3 > 100 µM | HOP-62 > 100 µM | SF-539 > 100 µM | MCF7 > 100 µM | OVCAR-5 > 100 µM | SNB-19 > 100 µM | UACC-62 > 100 µM | SF-268 > 100 µM | SK-MEL-2 > 100 µM | HT-29 > 100 µM | IGROV-1 > 100 µM | HCT-116 > 100 µM | A498 > 100 µM | MDA-MB-231 > 100 µM | SW-620 > 100 µM | LOX IMVI > 100 µM | EKVX > 100 µM | NCI-H23 > 100 µM | HOP-92 > 100 µM | MDA-N > 100 µM | UO-31 > 100 µM | CAKI-1 > 100 µM | T47D > 100 µM | COLO 205 > 100 µM | NCI/ADR-RES > 100 µM | SNB-75 > 100 µM | OVCAR-4 > 100 µM | KM12 > 100 µM | Hs-578T > 100 µM | RPMI-8226 > 100 µM | MOLT-4 > 100 µM | NCI-H460 > 100 µM | ACHN > 100 µM | SK-OV-3 > 100 µM | BT-549 > 100 µM | Malme-3M > 100 µM
